Measurements: patent publication US20210379020A1, “COMPOUNDS FOR THE TREATMENT OF MALARIA” (Merck Sharp & Dohme Corp., priority 2016, published 2021)

Tested on: asexual P. falciparum 3D7 parasites
Assay: P. falciparum growth inhibition assay with LDH activity readout (Assay 1)
Assay type: cell-based, Plasmodium falciparum
Settings: 3D7 strain, 72 h incubation, LDH activity read by absorbance at 650 nm
Description: A modified version of the assay described in Gamo, F. J., Sanz, L. M., Vidal, J., de Cozar, C., Alvarez, E., Lavandera, J. L., Vanderwall, D. E., Green, D. V., Kumar, V., Hasan, S., Brown, J. R., Peishoff, C. E., Cardon, L. R., Garcia-Bustos, J. F., Nature, 465 (2010) 305-310 (Gamo et al.) was used to assess the activity of compounds against asexual P. falciparum 3D7 parasites. Compounds were pre-dispensed in 384-well plates, RPMI/AlbuMAX growth media was added and P. falciparum inoculated. Plates were incubated for 72 h and then frozen at −80° C. overnight. LDH activity was quantified with the modified cofactor 3-acetylpyridine adenine dinucleotide (APAD) (Sigma Aldrich) by measuring absorbance of the tetrazolium indicator nitro blue tetrazolium (NBT) (Sigma Aldrich) at 650 nm.
An inoculum of synchronous P. falciparum (3D7 strain) parasitized red blood cells (PRBC) at 0.7% parasitaemia and 2% haematocrit in RPMI-1640, 5% AlbuMAX, 2% D-sucrose, 0.3% glutamine and 150 μM hypoxanthine was used for the assay.
Compound master plates (384-well) were prepared by a 10 pt serial dilution of compounds, from 1 mM to 50.8 nM, in columns 3-12 and 13-22. DMSO was dispensed into columns 1 and 23 of the compound master plate to be used as the positive growth control (100% viability). […] Intermediate compound dilution plates were prepared by dispensing 1 μl from each well of the compound master plate into 11.5 μl of RPMI/AlbuMAX growth media. Duplicate assay plates (384-well) were then prepared by dispensing 0.5 μL of compound from the intermediate dilution plates into 9.5 μl of RPMI/AlbuMAX growth media. The parasite inoculum (30 μL) was dispensed into the assay plates containing compounds using a Multidrop dispenser (Thermo Scientific) such that the final assay volume was 40 μL and final compound concentration was 1 μM-0.05 nM (the volume of compound addition can be adjusted to the preferred and agreed screening concentration). The final DMSO concentration was 0.1% (ideally 0.2% to limit toxicity to parasites), but this is dependent on volume of compound DMSO stock solution that can be supplied. Plates were incubated at 37° C. for 72 h in an atmosphere of 5% CO2, 5% O2, […].
After 72 h of incubation, plates were frozen at −80° C. overnight and then thawed at room temperature for at least 4 h. To evaluate LDH activity, 45 μL of freshly made reaction mix (174 mM sodium L-lactate (Sigma Aldrich), 214 μM 3-acetyl pyridine adenine dinucleotide (APAD) (Sigma Aldrich), 270 μM nitro blue tetrazolium chloride (NBT) (Sigma Aldrich), 4.35 U/mL diaphorase (from Clostridium kluyveri) (Sigma Aldrich), 0.7% Tween 20, 100 mM Tris-HCl pH 7.5) was dispensed using a Multidrop dispenser (Thermo Scientific). Plates were shaken to ensure mixing and absorbance at 650 nm was monitored using a Perkin Elmer Envision plate reader after 30 min of incubation at room temperature. Data were normalized to percent growth inhibition using positive and negative controls, and analysed using TIBCO Spotfire software.
P. falciparum 3D7 strain was grown as described in Assay 1, at 37° C. for 72 hours. The culture was frozen at −80° C. overnight. Cultures were thawed at room temperature for at least 4 hours and the reaction mixture described in Assay 1 was made in order to measure the possible direct inhibition of LDH by the following compounds, assayed as above in Assay 1.

Row | Structure (SMILES) | IC50
1 | CC(=O)N1CCN(C(=O)c2cc(F)cc(CN3C(=N)NC(c4ccccc4)(c4ccccc4)C3=O)c2)CC1 [Compound 1] | 4.5 nM
2 | N=C1NC(C[C@@H]2CCCO2)(c2ccccc2)C(=O)N1Cc1ccc(C(F)(F)F)c(C(=O)N2Cc3nccnc3C2)c1 (some centres unmarked) [Compound 2] | 5.8 nM
3 | CC(C)CC[C@]1(c2ccccc2)NC(=N)N(Cc2ccc(C(F)(F)F)c(C(=O)N3CC(O)C(F)C3)c2)C1=O (some centres unmarked) [Compound 3] | 9.6 nM
4 | N=C1NC(c2ccc(F)cc2)(C2CCCCC2)C(=O)N1Cc1ccc(C(F)(F)F)c(C(=O)N2Cc3nccnc3C2)c1 (centres unmarked) [Compound 4] | 9.7 nM
5 | CC(C)CC[C@]1(c2ccccc2)NC(=N)N(Cc2ccc(C(C)(C)C)c(C(=O)NCc3cccnc3)c2)C1=O [Compound 11] | 172 nM
